Test results: ChEMBL document CHEMBL5137079, “Structure-Based Design of Xanthine-Benzimidazole Derivatives as Novel and Potent Tryptophan Hydroxylase Inhibitors” (J Med Chem, 2022)
≈ marks a conversion by molar mass, not a printed value.

Tests used:
[1] = Metabolic stability in human hepatocytes assessed as half life; format: ADME, cell-based, Hepatocyte
[2] = Solubility of the compound in PBS at pH 7.4 at upto 200 uM by HPLC-UV analysis; format: physicochemical
[3] = Solubility of the compound in simulated gastric fluid at upto 200 uM by HPLC-UV analysis; format: physicochemical
[4] = Metabolic stability in rat hepatocytes assessed as half life; format: ADME, cell-based, Hepatocyte
[5] = Solubility of the compound in simulated intestinal fluid at upto 200 uM by HPLC-UV analysis; format: physicochemical
[6] = Metabolic stability in rat hepatocytes assessed as intrinsic clearance; format: ADME, cell-based, Hepatocyte; settings: read-out: CLH
[7] = Metabolic stability in human hepatocytes assessed as intrinsic clearance; format: ADME, cell-based, Hepatocyte; settings: read-out: CLH
[8] = AUCinfinity in ICR mouse brain at 50 mg/kg, po administered as single dose measured for 1440 mins by LC-MS/MS analysis; format: ADME, organism-based; set-up: time 1440 min, dose 50 mg/kg, route po
[9] = AUCinfinity in ICR mouse plasma at 50 mg/kg, po administered as single dose measured for 1440 mins by LC-MS/MS analysis; format: ADME, organism-based; set-up: time 1440 min, dose 50 mg/kg, route po

| Compound | half-life [1] | solubility [2] | solubility [3] | half-life [4] | solubility [5] | CLint scaled [6] | CLint scaled [7] | AUC(0-inf) [8] | AUC(0-inf) [9] |
| --- | --- | --- | --- | --- | --- | --- | --- | --- | --- |
| CCn1c(=O)[nH]c(=O)c2c1nc(Cc1nc3ccccc3[nH]1)n2Cc1ccccc1 | 12 min | 181 µM (≈ 72.6 µg/mL) | 162 µM (≈ 64.8 µg/mL) | 60 min | 158 µM (≈ 63.2 µg/mL) | – | – | – | – |
| O=c1[nH]c(=O)n(C2CC2)c2nc(Cc3nc4ccccc4[nH]3)n(Cc3ccccc3)c12 | 6 min | 167 µM (≈ 69 µg/mL) | 180 µM (≈ 74.1 µg/mL) | 35 min | 168 µM (≈ 69.2 µg/mL) | – | – | – | – |
| O=c1[nH]c(=O)n(C2CC2)c2nc(Cc3nc4ccc(O)cc4[nH]3)n(Cc3ccccc3)c12 | > 60 min | 171 µM (≈ 73.4 µg/mL) | 165 µM (≈ 70.6 µg/mL) | > 60 min | 185 µM (≈ 79.1 µg/mL) | < 115 mL/min/kg | < 115 mL/min/kg | – | – |
| CCCn1c(=O)[nH]c(=O)c2c1nc(Sc1nc3ccccc3[nH]1)n2Cc1ccccc1 | 4 min | 11.8 µM (≈ 5.1 µg/mL) | 173 µM (≈ 74.8 µg/mL) | 5 min | 150 µM (≈ 65 µg/mL) | – | – | – | – |
| O=c1[nH]c(=O)n(C2CC2)c2nc(Cc3nc4ccc(F)cc4[nH]3)n(Cc3ccccc3)c12 | 32 min | > 200 µM | 198 µM (≈ 85.4 µg/mL) | > 60 min | 154 µM (≈ 66.4 µg/mL) | < 115 mL/min/kg | – | – | – |
| COC(=O)c1ccc2nc(Cc3nc4c(c(=O)[nH]c(=O)n4C4CC4)n3Cc3ccccc3)[nH]c2c1 | > 60 min | 197 µM (≈ 92.8 µg/mL) | 198 µM (≈ 93.2 µg/mL) | > 60 min | 195 µM (≈ 91.8 µg/mL) | < 115 mL/min/kg | < 115 mL/min/kg | – | – |
| N#Cc1ccc2nc(Cc3nc4c(c(=O)[nH]c(=O)n4C4CC4)n3Cc3ccccc3)[nH]c2c1 | > 60 min | 154 µM (≈ 67.2 µg/mL) | 196 µM (≈ 85.8 µg/mL) | > 60 min | 196 µM (≈ 85.6 µg/mL) | < 115 mL/min/kg | < 115 mL/min/kg | – | – |
| CCn1c(=O)[nH]c(=O)c2c1nc(Cc1nc3cc4c(cc3[nH]1)OCO4)n2Cc1ccccc1 | > 60 min | 186 µM (≈ 82.8 µg/mL) | 191 µM (≈ 84.8 µg/mL) | 60 min | 166 µM (≈ 73.8 µg/mL) | – | < 115 mL/min/kg | 195 ng·h/mL | 7450 ng·h/mL |
| CCn1c(=O)[nH]c(=O)c2c1nc(Sc1nc3ccccc3[nH]1)n2Cc1ccccc1 | 5 min | 5.3 µM (≈ 2.22 µg/mL) | 195 µM (≈ 81.5 µg/mL) | 10 min | 176 µM (≈ 73.5 µg/mL) | – | – | – | – |
| Cn1c(=O)[nH]c(=O)c2c1nc(Sc1nc3cc(NC(=O)CC[C@H](N)C(=O)O)ccc3[nH]1)n2Cc1ccccc1 | > 60 min | 172 µM (≈ 94.2 µg/mL) | > 200 µM | > 60 min | 116 µM (≈ 63.4 µg/mL) | < 115 mL/min/kg | < 115 mL/min/kg | – | – |
| CCCn1c(=O)[nH]c(=O)c2c1nc(Cc1nc3cc(O)ccc3[nH]1)n2Cc1ccccc1 | > 60 min | > 200 µM | 189 µM (≈ 81.3 µg/mL) | > 60 min | 159 µM (≈ 68.5 µg/mL) | < 115 mL/min/kg | < 115 mL/min/kg | – | – |
| O=c1[nH]c(=O)n(C2CC2)c2nc(Cc3nc4ccc(OCCO)cc4[nH]3)n(Cc3ccccc3)c12 | > 60 min | 186 µM (≈ 87.7 µg/mL) | 186 µM (≈ 87.9 µg/mL) | > 60 min | 189 µM (≈ 89.2 µg/mL) | < 115 mL/min/kg | < 115 mL/min/kg | – | – |
| O=c1[nH]c(=O)n(C2CC2)c2nc(Cc3nc4cc5c(cc4[nH]3)OCO5)n(Cc3ccccc3)c12 | > 60 min | 22.9 µM (≈ 10.5 µg/mL) | 193 µM (≈ 87.9 µg/mL) | > 60 min | 191 µM (≈ 87.3 µg/mL) | < 115 mL/min/kg | < 115 mL/min/kg | – | – |
| COc1ccc2nc(Cc3nc4c(c(=O)[nH]c(=O)n4C4CC4)n3Cc3ccccc3)[nH]c2c1 | 6 min | 197 µM (≈ 87.1 µg/mL) | 162 µM (≈ 71.6 µg/mL) | > 60 min | 195 µM (≈ 86.3 µg/mL) | < 115 mL/min/kg | – | – | – |
